Data published in patent publication US20020025296A1, “Combined use of nucleoside analogues and gene transfection for tissue imaging and therapy” (priority 1994, published 2002).

Experiments:
[1] = Stability of the preferred compounds; settings: comparison among preferred compounds
[2] = Partition coefficients (log P), n-octanol/water, modified shake-flask technique with UV quantitation; format: physicochemical; settings: n-octanol and water (1:1, v/v)
Procedure: Partition coefficients (log P) were measured by determining the distribution of the test compound between a presaturated mixture of n-octanol and water (1:1, v/v). The analytical method consisted of a modified shake-flask technique and ultraviolet (UV) spectrometry quantitation after centrifugal separation of the two phases. The concentration of the test compound in the octanol phase prior to distribution was 0.5 mM. The dihydropyridine chromophore (λmax=360 nm) was used for quantitative UV analysis of IVDU-CDS and IVFRU-CDS, for which the results are shown in Table 1.

[3] = Pseudo-first order oxidation of the 1-methyl-1,4-dihydropyridine-CDS in mouse blood, brain homogenate and liver homogenate; format: in vitro ADME; settings: 37° C.; for k, oxidation rate, brain / t1/2, oxidation, brain: 20% mouse brain homogenate; for k, oxidation rate, blood / t1/2, oxidation, blood: 50% mouse blood
Procedure: Pseudo-first order rate constants and half-lives for the oxidation of IVDU-CDS and IVFRU-CDS were determined in 50% mouse blood, 20% mouse brain homogenate and 20% mouse liver homogenate. A solution of the test compound in DMSO (10 Mm) was added to each matrix and incubated at 37° C. At various times after test compound addition, an aliquot was removed and added to acetonitrile (100 μL). The samples were immediately centrifuged and the supernatant was analyzed by quantitative reverse phase HPLC. The rate of disappearance of the 1-methyl-1,4-dihydropyridine-CDS was determined by UV detection at 360 nm.

[4] = test system: KBALB-STK cells that express HSV-1 TK; test: In vitro cellular uptake of radiopharmaceuticals in transduced or non-transduced sarcoma cell lines; format: cell-based; settings: KBALB-STK cells relative to KBALB or KBALB-LNL cells, 37° C.
Procedure: The KBALB sarcoma models used in these studies are derived by exposing wild-type KBALB cells to Moloney murine leukemia virus (MMLV) producer cell supernatants containing replication incompetent ecotropic retroviruses. […] These transduced cell lines are cultured in media containing the antibiotic G-418 to select for those cells expressing the neomycin resistance gene.
KBALB-STK, KBALB-LNL, or wild type KBALB cells were grown to confluency in 24 well culture plates. [^125I]-IVDU (sp. act.=12 Gbq/mmol), [^125I]-1VFRU (sp. act.=11 Gbq/mmol), [^131′I]-IVDU-CDS (sp. act.=2.8 Gbq/mmol) or [^131I]-IVFRU-CDS (sp. act.=4.3 Gbq/mmol) were added to each well in 100 μL saline solution and incubated at 37° C. At varying times after exposure to the test compound, the supernatant was removed, the cells rinsed with saline, and the adherent cells were then trypsinized prior to their removal. Cellular uptake -was determined by gamma counting using a Beckmann 8000 gamma counter.

KBALB-STK tumors [5] = test: Biodistribution in mice bearing KBALB-STK tumors; format: in vivo
Procedure: (§1) KBALB or KBALB-STK cells (1×10^5 cells) were injected subcutaneously into the flank of male Balb-c mice. Palpable tumors appeared 14 days after injection. [^131I]-IVFRU (370 KBq, sp. act. 59 Gbq/mmol) was injected via the tail vein into each tumor bearing animal. Three animals were sacrificed and dissected at each time interval. The radioactivity uptake by selected tissues of interest were determined using a Beckman 8000 gamma counter. Tissue uptake is expressed as a percentage of the administered dose per gram of tissue versus time in FIGS. 3 and 4. The tumor to blood ratio is presented for both tumor models in FIG. 5.

KBALB tumors = test: Biodistribution in mice bearing wild type KBALB tumors; format: in vivo; settings: relative to KBALB-STK tumors
Procedure: as §1

[6] = test system: KBALB-STK tumors expressing HSV-1 TK; test: Scintigraphic imaging of KBALB-STK tumors; format: in vivo, mice; settings: 8 hours after administration
Procedure: (§2) BALB-STK cells (1×10^5 cells) were injected subcutaneously into the flank of 12 Balb-c mice. All inoculated animals developed palpable tumors suitable for imaging after 14 days at which time the tumors were approximately 10 mm in diameter. Static images were obtained following injection of 3.7 Mbq of [^131I]-VFRU (sp. act.=252 Gbq/mmol) via the tail vein. Animals were placed in the prone position under a pinhole collimator using a Searle gamma camera (Scintiview) with data manipulated on an ADAC computer (DPS 3300). Images were acquired over 15 minutes using a 256×256 matrix. After initial imaging, a group of animals (n=6) were administered an intraparietoneal (ip) injection of ganciclovir (100 mg/kg) once daily for seven consecutive days. The control group (n=6) received daily saline injections. After four days, the animals were administered [^131I]-IVFRU as described previously and imaging was performed using the same acquisition protocol described above. It was noted that the treatment group tumor size had shrunk to an average size of less than 5 mm. […] The tumors in the saline administered control animals continued to grow until termination of the experiment. […] The scintigram, presented as FIG. 7, is for the same animal 8 hours after [^131I]-IVFRU administration following 4 days of ganciclovir treatment.

HSV-1 TK = HSV-1 TK (Human herpesvirus 1, UniProt P0DTH5); test: Substrate property for the gene expression product HSV-1 TK; format: biochemical, herpes simplex virus type 1
HSV-1 TK, sequence (P0DTH5 whole entry): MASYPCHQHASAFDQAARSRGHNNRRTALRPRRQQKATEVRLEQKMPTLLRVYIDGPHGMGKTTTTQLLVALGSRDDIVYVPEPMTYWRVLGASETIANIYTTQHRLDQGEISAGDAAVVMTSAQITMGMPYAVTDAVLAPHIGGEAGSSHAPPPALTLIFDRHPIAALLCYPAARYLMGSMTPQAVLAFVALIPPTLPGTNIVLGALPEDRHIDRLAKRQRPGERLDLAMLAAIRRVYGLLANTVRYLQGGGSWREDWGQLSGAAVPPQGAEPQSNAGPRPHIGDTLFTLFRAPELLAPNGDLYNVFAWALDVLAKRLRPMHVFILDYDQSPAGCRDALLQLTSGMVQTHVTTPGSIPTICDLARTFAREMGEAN

KBALB-STK tumors [7] = test: Ganciclovir treatment of mice bearing KBALB-STK tumors; format: in vivo; settings: 100 mg/kg ip once daily
Procedure: as §2

O=c1[nH]c(=O)n([C@H]2C[C@H](O)[C@@H](CO)O2)cc1/C=C/I [IVDU, (E)-5-(2-iodovinyl)-2′-deoxyuridine]
stability [1]: less stable than IVFRU, IVFAU and IVAU | logP [2]: 1.1

CN1C=CCC(C(=O)O[C@H]2C[C@H](n3cc(/C=C/I)c(=O)[nH]c3=O)O[C@@H]2CO)=C1 [IVDU-CDS, (E)-5-(2-iodovinyl)-3′-O-(1-methyl-1,4-dihydropyridyl-3-carbonyl)-2′-deoxyuridine]
k, oxidation rate, brain [3]: 0.00961 min⁻¹ | t1/2, oxidation, brain [3]: 1.2 h | k, oxidation rate, liver ([3]; 20% mouse liver homogenate): 0.01081 min⁻¹ | k, oxidation rate, blood [3]: 0.00522 min⁻¹ | t1/2, oxidation, blood [3]: 2.22 h | stability [1]: more stable | log P [2]: 1.77

O=c1[nH]c(=O)n([C@@H]2O[C@H](CO)[C@@H](O)[C@H]2F)cc1/C=C/I [IVFRU, (E)-5-(2-iodovinyl)-2′-fluoro-2′-deoxyuridine]
logP [2]: 1.21

CN1C=CCC(C(=O)O[C@H]2[C@@H](F)[C@H](n3cc(/C=C/I)c(=O)[nH]c3=O)O[C@@H]2CO)=C1 [IVFRU-CDS, (E)-5-(2-iodovinyl)-3′-O-(1-methyl-1,4-dihydropyridyl-3-carbonyl)-2′-fluoro-2′-deoxyuridine]
k, oxidation rate, brain [3]: 0.0031 min⁻¹ | t1/2, oxidation, brain [3]: 3.72 h | k, oxidation rate, liver ([3]; 20% mouse liver homogenate): 0.00531 min⁻¹ | t1/2, oxidation, liver ([3]; 20% mouse liver homogenate): 2.17 h | k, oxidation rate, blood [3]: 0.0027 min⁻¹ | t1/2, oxidation, blood [3]: 4.27 h | log P [2]: 1.83

O=c1[nH]c(=O)n([C@@H]2O[C@H](CO)[C@@H](O)[C@@H]2F)cc1C=C[125I] [[^125I]-IVFRU]
cellular uptake [4]: selective uptake

O=c1[nH]c(=O)n([C@H]2C[C@H](O)[C@@H](CO)O2)cc1C=C[125I] [[^125I]-VDU]
cellular uptake [4]: selective uptake

O=c1[nH]c(=O)n(C2OC(CO)C(O)C2F)cc1/C=C/[131I] (stereo not shown) [[^131I]-IVFRU, [^131I]-(E)-5-(2-iodovinyl)-2′-fluoro-2′-deoxyuridine]
peak tumor/blood ratio (KBALB-STK tumors [5]; KBALB-STK tumors, 8 hours post injection, tail vein): approximately 3 | tumor uptake (KBALB-STK tumors [5]; tumors expressing HSV-1 TK): Preferential tumor uptake | tumor/blood ratios (KBALB tumors; all time points): much lower | tumor radioactivity (KBALB tumors): significantly less | activity in region of the shrinking tumor remnant (scintigram) ([6]; following 4 days of ganciclovir treatment): relatively devoid of activity | uptake into tumor (scintigram) ([6]; prior to ganciclovir treatment): selective uptake

O=c1[nH]c(=O)n([C@@H]2O[C@H](CO)[C@@H](O)[C@H]2F)cc1/C=C/[123I] [^123I-IVFRU]
substrate for HSV-1 TK (HSV-1 TK): substrate

Nc1nc(O)c2ncn(COC(CO)CO)c2n1 [ganciclovir]
tumor response (KBALB-STK tumors [7]; after 7 days of treatment, all treated animals): completely regressed | average tumor size (KBALB-STK tumors [7]; after four days, tumors approximately 10 mm at start): less than 5 mm
